Experiment: Stability study of lyophilized Compound I with mannitol (Method A / Method B samples)
Format: physicochemical
Protocol: […] Each 30 mL Type I, clear glass sample vial with 20 mm Freeze Dry Stoppers (Flurotech™ coated) contained 150 mg of Compound I.
At each time point, a vial was removed from the stored condition and reconstituted with 10 mL of D5W and analyzed by HPLC method as discussed in Example 5 at 1 month, 2 months, 3 months, and/or 6 months. In Tables 18-18e, RRT matches the Compounds as shown below.
Sample Preparation—Method A: 10% Mannitol solution was prepared by weighing 200 g±1.0 g of mannitol into glass beaker, adding approximately 1500 mL of WFI (water for injection) to the beaker and stirring until mannitol was dissolved. The mannitol solution was transferred to a 2 L volumetric flask and made to volume with WFI, then poured back to the original beaker to sir and mix further. 1M HCl solution was prepared by adding 16.4 mL of HCl (37%) to a 200 mL volumetric flask containing approximately 100 mL of WFI, adding WFI to make 200 mL in volume, and inverting to mix the prepared solution.
To a tared 2 L Schott bottle containing a magnetic stirrer and wrapped in aluminum foil, 1020 g±1.0 g of the 10% mannitol solution was added. Then, 58.4 g±0.05 g of the 1M HCl solution was added to the 2 L Schott bottle and stirred for approximately 10 minutes. The solution prepared in the 2 L Schott bottle was purged with nitrogen which was continued throughout the manufacturing process. 30.22 g of Compound I (free base) was weighed then added to the 2 L Schott bottle containing 10% mannitol solution and 1 M HCl solution with continual magnetic stirring. The container used to weigh Compound I was rinsed with 3×10 mL of WFI and added to the Schott bottle. After Compound I dissolved (approximately 40 minutes), additional 650 g of WFI was added to the Schott bottle and the solution was stirred for approximately 10 minutes. The pH of the Compound I solution (in Schott bottle) was measured then adjusted to pH 4.5±0.1 using 1 M HCl solution. After each addition of 1 M HCl solution, the solution was stirred for several minutes prior to verifying the pH. Once the pH was adjusted, nitrogen purging was stopped. The pH adjusted Compound I solution was further diluted with WFI to a target weight of 2040 g±1.0 g and stirred.
The final solution (pH adjusted and diluted) was filtered (chain including PVD Fmembrane filter 0.45 μm and 0.22 μm; peristaltic filtration pump by Watson Marlow) in the Bigneat and the bottle containing the filtered solution was sealed. The filtered solution was pumped (Watson Marlow Flexicon PF6-B pump; 100 RPM) into 30 mL Schott Clear Glass vials (10.0 mL filtered solution each). The glass vials were partially stoppered with 20 mm Freeze Dry Stopper Flurotec (Daikyo Seiko) one vial at a time with sterilized utensils inside a fume hood (Envair B101+1.5R) and placed on freeze dryer trays. The freeze dryer trays were transferred into freeze dry chamber and vial probe was positioned (Lyostar II; FTS Kinetics). Lyophilization was performed using the lyophilization cycle listed below. After lyophilization cycle finished, the vials were back filled with N2 and the stopper was placed in situ, wiped down with isopropanol in the fume hood once removed from the freeze dryer, reconciled, then crimped. Seven vials out of 186 sample vials placed under the lyophilization cycle had smashed in the freeze dryer.
Sample Preparation—Method B (dissolved oxygen content ≤1 ppm): 2 L WFI was poured into a Schott bottled and degassed for 30 minutes with N2 until dissolved oxygen content was ≤1 ppm (dissolved oxygen meter and probe; Mettler Toledo). 10% Mannitol solution was prepared by adding […] of mannitol and 1000 mL of degassed WFI to a tared 2 L Schott bottle containing a magnetic stirrer and wrapped in aluminum foil. To the Schott bottle containing mannitol, 15 mL of 2M HCl was added and stirred for approximately 10 minutes. The resulting solution was sparged with N2 while stirring until dissolved oxygen content was ≤1 ppm (approx. 30 min). […]

[1] = Method A sample, 2-8° C./ambient % RH, 1 month
[2] = Method A sample, 2-8° C./ambient % RH, 2 months
[3] = Method A sample, 2-8° C./ambient % RH, 3 months
[4] = Method A sample, 2-8° C./ambient % RH, 6 months
[5] = Method A sample, 2-8° C./ambient % RH, 9 months
[6] = Method A sample, 2-8° C./ambient % RH, 12 months
[7] = Method A sample, 2-8° C./ambient % RH, 18 months
[8] = Method A sample, 2-8° C./ambient % RH, 24 months
[9] = Method A sample, 2-8° C./ambient % RH, 36 months
[10] = Method A sample, 2-8° C./ambient % RH, Initial
[11] = Method B sample, 5° C, 3 months
[12] = Method B sample, 5° C, 6 months

Cc1cnc(CNC(=O)c2c(=O)c3ccc(N4CCCN(C)CC4)nc3n3c2sc2ccccc23)cn1 [Compound I, 2-(4-Methyl-[1,4]diazepan-1-yl)-5-oxo-5H-7-thia-1,11b-diaza-benzo[c]fluorene-6-carboxylic acid (5-methyl-pyrazin-2-ylmethyl)-amide]
Appearance [1]: White powder
Appearance (Reconstituted Solution) [1]: Clear, colorless
Compound I by HPLC assay [1]: 101%
Reconstitution Time [1]: 54 s
Related Substances RRT 0.83 [1]: RRT 0.83: 0.41%
Related Substances RRT 0.88 [1]: RRT 0.88: 0.05%
Related Substances RRT 0.95A [1]: RRT 0.95A: 0.10%
Related Substances RRT 0.95B [1]: RRT 0.95B: 0.06%
Related Substances RRT 1.05 [1]: RRT 1.05: 0.18%
Related Substances RRT 1.08 [1]: RRT 1.08: 0.17%
Related Substances Total [1]: Total: 1.0%
Water Content [1]: 0.16%
pH [1]: 4.56
Appearance [2]: White powder
Appearance (Reconstituted Solution) [2]: Clear, colorless
Compound I by HPLC assay [2]: 101%
Reconstitution Time [2]: 55 s
Related Substances RRT 0.88 [2]: RRT 0.88: 0.06%
Related Substances RRT 0.95B [2]: RRT 0.95B: 0.06%
Related Substances RRT 1.05 [2]: RRT 1.05: 0.17%
Related Substances RRT 1.07 [2]: RRT 1.07: 0.15%
Related Substances Total [2]: Total: 0.4%
Water Content [2]: 0.20%
pH [2]: 4.51
Appearance [3]: White powder
Appearance (Reconstituted Solution) [3]: Clear, colorless
Compound I by HPLC assay [3]: 102%
Reconstitution Time [3]: 41 s
Related Substances RRT 0.88 [3]: RRT 0.88: 0.05%
Related Substances RRT 0.95A [3]: RRT 0.95A: 0.05%
Related Substances RRT 0.95B [3]: RRT 0.95B: 0.06%
Related Substances RRT 0.96 [3]: RRT 0.96: 0.06%
Related Substances RRT 1.05 [3]: RRT 1.05: 0.16%
Related Substances RRT 1.07 [3]: RRT 1.07: 0.20%
Related Substances Total [3]: Total: 0.6%
Water Content [3]: 0.16%
pH [3]: 4.45
Appearance [4]: White powder
Appearance (Reconstituted Solution) [4]: Clear, colorless
Compound I by HPLC assay [4]: 100%
Related Substances RRT 0.88 [4]: RRT 0.88: 0.09%
Related Substances RRT 0.89 [4]: RRT 0.89: 0.05%
Related Substances RRT 0.95B [4]: RRT 0.95B: 0.08%
Related Substances RRT 0.96 [4]: RRT 0.96: 0.07%
Related Substances RRT 1.05 [4]: RRT 1.05: 0.17%
Related Substances RRT 1.07 [4]: RRT 1.07: 0.28%
Related Substances Total [4]: Total: 0.7%
Water Content [4]: 0.64%
pH [4]: 4.25
Appearance [5]: White powder
Appearance (Reconstituted Solution) [5]: Clear, colorless
Compound I by HPLC assay [5]: 100%
Related Substances RRT 0.88 [5]: RRT 0.88: 0.06%
Related Substances RRT 0.95B [5]: RRT 0.95B: 0.06%
Related Substances RRT 0.96 [5]: RRT 0.96: 0.05%
Related Substances RRT 0.97 [5]: RRT 0.97: 0.07%
Related Substances RRT 1.05 [5]: RRT 1.05: 0.17%
Related Substances RRT 1.07 [5]: RRT 1.07: 0.27%
Related Substances Total [5]: Total: 0.7%
Water Content [5]: 0.17%
pH [5]: 4.46
Appearance [6]: White powder
Appearance (Reconstituted Solution) [6]: Clear, colorless
Compound I by HPLC assay [6]: 101%
Related Substances RRT 0.88 [6]: RRT 0.88: 0.09%
Related Substances RRT 0.89 [6]: RRT 0.89: 0.07%
Related Substances RRT 0.95B [6]: RRT 0.95B: 0.05%
Related Substances RRT 0.96 [6]: RRT 0.96: 0.10%
Related Substances RRT 0.97 [6]: RRT 0.97: 0.11%
Related Substances RRT 1.05 [6]: RRT 1.05: 0.17%
Related Substances RRT 1.07 [6]: RRT 1.07: 0.45%
Related Substances Total [6]: Total: 1.0%
Water Content [6]: 0.20%
pH [6]: 4.47
Appearance [7]: White powder
Appearance (Reconstituted Solution) [7]: Clear, colorless
Compound I by HPLC assay [7]: 98%
Related Substances RRT 0.88 [7]: RRT 0.88: 0.05%
Related Substances RRT 0.95B [7]: RRT 0.95B: 0.05%
Related Substances RRT 0.96 [7]: RRT 0.96: 0.06%
Related Substances RRT 0.97 [7]: RRT 0.97: 0.07%
Related Substances RRT 1.04 [7]: RRT 1.04: 0.05%
Related Substances RRT 1.05 [7]: RRT 1.05: 0.17%
Related Substances RRT 1.07 [7]: RRT 1.07: 0.20%
Related Substances Total [7]: Total: 0.6%
Water Content [7]: 0.24%
pH [7]: 4.23
Appearance [8]: White powder
Appearance (Reconstituted Solution) [8]: Clear, colorless
Compound I by HPLC assay [8]: 99%
Related Substances RPT 0.88 [8]: RPT 0.88: 0.06%
Related Substances RPT 0.95B [8]: RPT 0.95B: 0.05%
Related Substances RPT 0.96 [8]: RPT 0.96: 0.06%
Related Substances RPT 0.97 [8]: RPT 0.97: 0.08%
Related Substances RRT 0.89 [8]: RRT 0.89: 0.05%
Related Substances RRT 1.05 [8]: RRT 1.05: 0.17%
Related Substances RRT 1.07 [8]: RRT 1.07: 0.29%
Related Substances Total [8]: Total: 0.8%
Water Content [8]: 0.21%
pH [8]: 4.37
Appearance [9]: White powder
Appearance (Reconstituted Solution) [9]: Clear, colorless
Compound I by HPLC assay [9]: 101%
Related Substances RRT 0.88 [9]: RRT 0.88: 0.06%
Related Substances RRT 0.96 [9]: RRT 0.96: 0.06%
Related Substances RRT 0.97 [9]: RRT 0.97: 0.06%
Related Substances RRT 1.05 [9]: RRT 1.05: 0.18%
Related Substances RRT 1.07 [9]: RRT 1.07: 0.24%
Related Substances Total [9]: Total: 0.6%
Water Content [9]: 0.28%
pH [9]: 4.48
Appearance [10]: White powder
Appearance (Reconstituted Solution) [10]: Clear, colorless
Compound I by HPLC assay [10]: 101.5%
Related Substances RRT 1.05 [10]: RRT 1.05: 0.18%
Related Substances RRT 1.06 [10]: RRT 1.06: 0.08%
Related Substances RRT 1.08 [10]: RRT 1.08: 0.06%
Related Substances Total [10]: Total: 0.3%
Water Content [10]: 0.14%
pH [10]: 4.45
Appearance (Method B sample, 5° C, 1 month): White powder
Appearance (Reconstituted Solution) (Method B sample, 5° C, 1 month): Clear, colorless
Compound I by HPLC assay (Method B sample, 5° C, 1 month): 99.5%
Reconstitution Time (Method B sample, 5° C, 1 month): 60 s
Related Substances RRT 1.06 (Method B sample, 5° C, 1 month): RRT 1.06: 0.16%
Related Substances RRT 1.08 (Method B sample, 5° C, 1 month): RRT 1.08: 0.06%
Related Substances RRT 1.22 (Method B sample, 5° C, 1 month): RRT 1.22: 0.05%
Related Substances Total (Method B sample, 5° C, 1 month): Total: 0.3%
Water Content USP<921 Method 1c> (Method B sample, 5° C, 1 month): 1.51%
pH (USP<791>) (Method B sample, 5° C, 1 month): 4.4
Appearance [11]: Off-white powder
Appearance (Reconstituted Solution) [11]: Clear, colorless
Compound I by HPLC assay [11]: 101.2%
Related Substances RRT 0.17 [11]: RRT 0.17: 0.05%
Related Substances RRT 1.04 [11]: RRT 1.04: 0.08%
Related Substances RRT 1.05 [11]: RRT 1.05: 0.19%
Related Substances Total [11]: Total: 0.3%
Water Content USP<921 Method 1c> [11]: 1.19%
pH (USP<791>) [11]: 4.5
Appearance [12]: Off-white powder
Appearance (Reconstituted Solution) [12]: Clear, colorless
Compound I by HPLC assay [12]: 100.7%
Related Substances RRT 1.05 [12]: RRT 1.05: 0.13%
Related Substances Total [12]: Total: 0.1%
Water Content USP<921 Method 1c> [12]: 1.25%
pH (USP<791>) [12]: 4.5
Appearance (Method B sample, 5° C, Initial): White powder
Appearance (Reconstituted Solution) (Method B sample, 5° C, Initial): Clear, colorless
Compound I by HPLC assay (Method B sample, 5° C, Initial): 100.2%
Related Substances RRT 0.96 (Method B sample, 5° C, Initial): RRT 0.96: 0.05%
Related Substances RRT 1.04 (Method B sample, 5° C, Initial): RRT 1.04: 0.05%
Related Substances RRT 1.06 (Method B sample, 5° C, Initial): RRT 1.06: 0.17%
Related Substances RRT 1.08 (Method B sample, 5° C, Initial): RRT 1.08: 0.06%
Related Substances Total (Method B sample, 5° C, Initial): Total:0.3%
Water Content USP<921 Method 1c> (Method B sample, 5° C, Initial): 1.12%
